The text below walks through data of patent US10759787B2, “Benzofuran derivative, preparation method thereof and use thereof in medicine” (Jiangsu Hengrui Medicine Co., Ltd., priority 2015, dated 2020).

One may read the IC50 as the concentration needed to halve the response being measured. What is called AUC is the area under the concentration-time curve, a measure of exposure. By MRT is commonly meant a mean duration of stay, worked out from the concentration-time curve. What is called Cmax is the peak of the concentration-time curve.

One data set has as its system Pfeiffer cells. Briefly: In vitro anti-tumor cell growth assay (CellTiter-Glo), Pfeiffer. The data set is classed as cell-based. The following applies: Homo sapiens, 120 h; Pfeiffer cells (A677G mutant), 5 days; read-out: IC50 for inhibiting the growth activity of tumor cells (Pfeiffer) in vitro. The method, then:
(§1) Test Example 2. Assay for Determining In Vitro Anti-Tumor Cell Growth Activity of the Example Compounds of the Present Invention
(§2) This method was used to determinate the inhibitory effect of the compounds of the present invention on the growth activity of tumor cells (Pfeiffer or WSU-DLCL2) in vitro. Pfeiffer cells carry A677G mutant, and WSU-DLCL2 cells carry Y641F mutant.
(§3) The lymphoma suspension cell line (Pfeiffer or WSU-DLCL2) was cultured in a RPMI-1640 medium containing 10% inactivated Fetal Bovine Serum, 100 U/mL penicillin, and 100 μg/mL streptomycin, and incubated in an incubator with 5% carbon dioxide at 37° C. under a saturated humidity condition, and passaged every 3-4 days.
(§4) A cell sudpension was prepared with a fresh cell medium, added to a 96-well cell culture plate at 8000 cells/well (Pfeiffer) or 2000 cells/well (WSU-DLCL2), and incubated in 5% carbon dioxide at 37° C. incubator overnight. On the day of the experiment, the EZH2 test compounds (final concentration: 20000, 2000, 200, 20, 2, 0.2 nM) were added into the experimental wells for 3 parallel wells per group. A control well with the medium alone but without cells was set up to obtain the background luminescent value. The cell culture plate was incubated in an incubator with 5% carbon dioxide at 37° C. for 5 days.
(§5) After the compounds were applied to the cells for 5 days, the cell culture plate was placed at room temperature for 30 minutes, then a CellTiter-Glo reagent equal to the volume of cell culture medium was added to each well. The contents were mixed on a shaker for 10 minutes, and the […] signal values were recorded. The cell growth inhibition rate was calculated, and the formula was: cell growth inhibiton rate=[(negative control control−experimental group)/(negative control group−background luminescent value)]×100%. The IC50 values (half inhibition rate IC50, i.e., a drug concentration that is required for 50% cell growth inhibition rate) were calculated by software from the cell growth inhibiton rate and the corresponding concentration.

The target in another data set is EZH2-A677G (Homo sapiens (Human), UniProt Q15910, A677G). Briefly: EZH2-A677G mutant enzyme activity assay (HTRF). The data set is classed as biochemical. The following applies: read-out: IC50 for inhibiting the activity of enzyme EZH2-A677G. The method, then: (§6) Histone H3 biotin labeling and S-adenosyl methionine were respectively diluted to 50 nM and 50 μM with a kinase buffer, then added to a 384-well plate at 4 μl/well. The test compound was diluted with a kinase buffer (it was diluted from the highest concentration 30 μM in 10 fold concentration gradient to 7 concentration points), then added to the 384-well microtiter plate at 4 μl/well. The plate was incubated at room temperature for 2 hours. Histone H3K27 Me3 monoclonal antibody and Streptavidin-XL665 were diluted to 30 nM and 500 nM by HTRF detection buffer, then added to the 384-well microplate at 10 µl/well and incubated for 1 hour. A well without an EZH2 enzyme and a compound was used as a negative control, and a well with an EZH2 enzyme but without a compound was used as a positive control. […] The compound logarithm concentration vs the inhibition percentage relative to the positive control well was plotted using GraphPad Prism, then the IC50 values were calculated.

Data set [1] can be described thus: Pharmacokinetics assay in SD rats after intragastrical administration. The data set is classed as in vivo. The note with it: both sexes, Sprague-Dawley, rat, plasma, po, 5 mg/kg; for Vd/F: read-out: Apparent Distribution Volume Vz/F; for AUC: read-out: Area Under Curve AUC; for CL/F: read-out: Clearance CL/F; for half-life: read-out: Half-Life t1/2 (converted); for MRT: read-out: Mean Residence Time MRT; for Cmax: read-out: Plasma Conc. Cmax. The method, then: Test Example 3. Pharmacokinetics Assay of the Compounds of Examples 1, 2, 3 and 9 of the Present Invention
SD rats were used as test animals. The drug concentration in plasma at different time points was determined by LC/MS/MS after intragastrical administration of the compounds of Examples 1, 2, 3 and 9 to the rats. The pharmacokinetic behavior of the compounds of the present invention was studied and evaluated in rats.
16 healthy adult Sprague-Dawley (SD) rats, half male and half female, were purchased from SINO-BRITSH SIPPR/BK LAB. ANIMAL LTD., CO, with Certificate No.: SCXK (Shanghai) 2008-0016.
The appropriate amount of each compound was weighed, and added with 0.5% CMC-Na (containing 1% Tween 80) to prepare a 1.0 mg/mL suspension by grinding.
After an overnight fast, 16 SD rats were divided into 4 groups equally, half male and half female, and administered intragastrically the test compounds at an administration volume of 5 mL/kg.
Blood (0.2 mL) was taken from the orbital sinus before administration and at 0.5, 1.0, 2.0, 4.0, 6.0, 8.0, 11.0, and 24.0 hours after administration. The samples were stored in heparinized tubes, and centrifuged for 10 minutes at 3,500 rpm to separate the blood plasma. The plasma samples were stored at −20° C.
The plasma concentration of the test compounds in rat plasma after intragastric administration was determined by LC-MS/MS.
Pharmacokinetic parameters of the compounds of Examples 1, 2, 3 and 9 of the present invention are shown below: […]

Another data set addresses EZH2-Y641F (Homo sapiens (Human), UniProt Q15910, Y641F). The data set is described as follows: EZH2-Y641F mutant enzyme activity assay (HTRF). The data set is classed as biochemical. The following applies: read-out: IC50 for inhibiting the activity of enzyme EZH2-Y641F. The protocol:
as §6
Background: TR-FRET usually uses a lanthanide donor and a delayed reading to cut background.

A further data set deals with WSU-DLCL2 cells. The data set is described as follows: In vitro anti-tumor cell growth assay (CellTiter-Glo), WSU-DLCL2. The data set is classed as cell-based. The following applies: Homo sapiens, WSUDLCL2, 120 h; WSU-DLCL2 cells (Y641F mutant), 5 days; read-out: IC50 for inhibiting the growth activity of tumor cells (WSU-DLCL2) in vitro. The method, then: as §1, §2, §3, §4, §5

Each structure is given as a SMILES string.

Chain of EZH2-Y641F (Q15910 whole entry Y641F): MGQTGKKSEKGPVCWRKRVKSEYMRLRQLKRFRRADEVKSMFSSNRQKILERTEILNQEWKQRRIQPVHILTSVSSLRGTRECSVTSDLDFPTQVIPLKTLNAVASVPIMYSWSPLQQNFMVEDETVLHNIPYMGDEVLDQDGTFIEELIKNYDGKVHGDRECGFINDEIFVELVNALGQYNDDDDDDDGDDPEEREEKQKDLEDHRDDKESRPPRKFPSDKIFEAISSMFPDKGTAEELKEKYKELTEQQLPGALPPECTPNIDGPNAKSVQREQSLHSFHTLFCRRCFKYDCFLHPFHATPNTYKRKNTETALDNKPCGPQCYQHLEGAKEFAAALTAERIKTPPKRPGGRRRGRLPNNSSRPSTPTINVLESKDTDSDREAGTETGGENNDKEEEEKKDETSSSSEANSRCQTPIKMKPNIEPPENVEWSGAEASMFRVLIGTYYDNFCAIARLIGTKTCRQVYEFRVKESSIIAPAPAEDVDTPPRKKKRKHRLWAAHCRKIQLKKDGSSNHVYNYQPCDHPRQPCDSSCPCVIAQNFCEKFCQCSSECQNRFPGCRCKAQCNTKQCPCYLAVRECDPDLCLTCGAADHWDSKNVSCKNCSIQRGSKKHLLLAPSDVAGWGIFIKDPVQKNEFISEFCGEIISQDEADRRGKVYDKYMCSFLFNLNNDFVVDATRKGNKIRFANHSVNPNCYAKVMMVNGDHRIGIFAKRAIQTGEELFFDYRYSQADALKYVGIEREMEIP
Chain of EZH2-Y641F (O75530 whole entry partner): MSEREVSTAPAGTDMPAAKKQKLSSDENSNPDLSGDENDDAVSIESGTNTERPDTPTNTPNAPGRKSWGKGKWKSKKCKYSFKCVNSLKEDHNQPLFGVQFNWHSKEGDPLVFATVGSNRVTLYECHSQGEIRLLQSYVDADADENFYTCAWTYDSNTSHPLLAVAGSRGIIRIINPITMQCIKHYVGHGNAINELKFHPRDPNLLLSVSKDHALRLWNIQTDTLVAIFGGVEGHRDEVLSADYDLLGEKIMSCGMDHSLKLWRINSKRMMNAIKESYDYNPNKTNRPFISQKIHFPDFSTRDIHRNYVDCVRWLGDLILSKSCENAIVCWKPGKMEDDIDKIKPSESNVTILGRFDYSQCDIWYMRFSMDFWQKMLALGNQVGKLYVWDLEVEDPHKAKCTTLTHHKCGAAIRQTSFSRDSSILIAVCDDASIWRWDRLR
Chain of EZH2-Y641F (Q15022 whole entry partner): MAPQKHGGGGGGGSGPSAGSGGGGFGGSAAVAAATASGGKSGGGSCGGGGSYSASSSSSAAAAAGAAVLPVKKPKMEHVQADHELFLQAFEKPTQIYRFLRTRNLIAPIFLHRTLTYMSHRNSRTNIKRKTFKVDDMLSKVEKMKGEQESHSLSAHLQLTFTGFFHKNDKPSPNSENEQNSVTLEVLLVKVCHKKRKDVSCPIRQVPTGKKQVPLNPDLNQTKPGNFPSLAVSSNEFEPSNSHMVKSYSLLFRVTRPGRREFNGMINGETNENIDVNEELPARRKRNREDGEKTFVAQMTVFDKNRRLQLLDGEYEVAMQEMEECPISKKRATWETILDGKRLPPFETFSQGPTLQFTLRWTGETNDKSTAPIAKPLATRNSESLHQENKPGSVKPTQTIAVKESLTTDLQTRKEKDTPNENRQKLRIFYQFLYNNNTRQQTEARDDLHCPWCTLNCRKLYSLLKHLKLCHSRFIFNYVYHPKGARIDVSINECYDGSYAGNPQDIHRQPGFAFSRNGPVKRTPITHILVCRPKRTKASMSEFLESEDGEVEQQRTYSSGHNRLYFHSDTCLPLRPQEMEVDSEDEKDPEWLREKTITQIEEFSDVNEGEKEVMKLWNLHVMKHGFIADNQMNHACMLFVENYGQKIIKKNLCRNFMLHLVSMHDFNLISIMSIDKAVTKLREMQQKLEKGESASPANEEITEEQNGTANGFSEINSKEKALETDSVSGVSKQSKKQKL
Chain of EZH2-Y641F (Q09028 whole entry partner): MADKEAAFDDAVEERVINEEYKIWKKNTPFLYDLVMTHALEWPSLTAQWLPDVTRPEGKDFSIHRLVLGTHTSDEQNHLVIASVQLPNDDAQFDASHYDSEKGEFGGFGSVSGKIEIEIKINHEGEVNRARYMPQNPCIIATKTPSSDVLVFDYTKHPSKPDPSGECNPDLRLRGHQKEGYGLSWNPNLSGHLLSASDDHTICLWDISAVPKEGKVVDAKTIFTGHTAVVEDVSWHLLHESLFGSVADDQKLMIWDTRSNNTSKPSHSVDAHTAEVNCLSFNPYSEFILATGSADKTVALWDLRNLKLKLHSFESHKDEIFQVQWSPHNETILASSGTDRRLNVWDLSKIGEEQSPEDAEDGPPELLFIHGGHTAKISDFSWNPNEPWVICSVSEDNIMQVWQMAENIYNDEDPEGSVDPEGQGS
Chain of EZH2-Y641F (Q6ZN18 whole entry partner): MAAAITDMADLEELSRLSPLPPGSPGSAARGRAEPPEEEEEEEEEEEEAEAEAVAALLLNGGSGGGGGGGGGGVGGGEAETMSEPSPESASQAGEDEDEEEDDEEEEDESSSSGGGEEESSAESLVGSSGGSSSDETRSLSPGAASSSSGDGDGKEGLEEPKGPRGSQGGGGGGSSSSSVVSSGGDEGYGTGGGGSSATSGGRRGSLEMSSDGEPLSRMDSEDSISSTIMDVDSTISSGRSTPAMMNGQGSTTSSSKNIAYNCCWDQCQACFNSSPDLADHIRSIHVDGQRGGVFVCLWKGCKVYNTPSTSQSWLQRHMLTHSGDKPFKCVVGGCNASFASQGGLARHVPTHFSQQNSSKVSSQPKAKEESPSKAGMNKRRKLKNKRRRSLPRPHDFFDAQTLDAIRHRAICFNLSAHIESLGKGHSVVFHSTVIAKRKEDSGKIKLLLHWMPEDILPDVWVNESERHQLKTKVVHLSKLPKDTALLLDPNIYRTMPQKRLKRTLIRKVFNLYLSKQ
Chain of EZH2-A677G (Q15910 whole entry A677G): as the sequence (Q15910 whole entry Y641F) above, with F641Y, A677G counted along it
Chain of EZH2-A677G (O75530 whole entry partner): as the sequence (O75530 whole entry partner) above
Chain of EZH2-A677G (Q15022 whole entry partner): as the sequence (Q15022 whole entry partner) above
Chain of EZH2-A677G (Q09028 whole entry partner): as the sequence (Q09028 whole entry partner) above
Chain of EZH2-A677G (Q6ZN18 whole entry partner): as the sequence (Q6ZN18 whole entry partner) above

On to `CCc1cc(C)[nH]c(=O)c1CNC(=O)c1c(CC)c(N(CC)C2CCOCC2)cc2oc(CN3CCCCC3)cc12` [Example 3, 5-Ethyl-6-(ethyl(tetrahydro-2H-pyran-4-yl)amino)-N-((4-ethyl-6-methyl-2-oxo-1,2-dihydropyridin-3-yl)methyl)-2-(piperidin-1-ylmethyl)benzofuran-4-carboxamide], for which, in the data set with Pfeiffer cells, the IC50 is 4 nM. Besides, the IC50 at EZH2-A677G turned out to be 38 nM. In addition, in data set [1], the Vd/F is 40.5 ± 7.97 L/kg, the AUC worked out at 487 ± 12 ng·h/mL, the CL/F worked out at 171 ± 4.4 mL/min/kg and the half-life was 2.73 ± 0.53 h. In data set [1], the MRT was 4.65 ± 0.184 h and the Cmax is 91.5 ± 5.6 ng/mL.
As to `COc1cc(C)[nH]c(=O)c1CNC(=O)c1c(C)c(N(C)C2CCOCC2)cc2occc12` [Example 23, N-((4-Methoxy-6-methyl-2-oxo-1,2-dihydropyridin-3-yl)methyl)-5-methyl-6-(methyl(tetrahydro-2H-pyran-4-yl)amino)benzofuran-4-carboxamide], the 50% inhibitory concentration (IC50) in the data set with Pfeiffer cells worked out at 68 nM; on EZH2-A677G, 4.8 nM; on EZH2-Y641F, 0.3 nM.
For `CCc1c(N(CC)C2CCOCC2)cc2oc(CN3CCCCC3)cc2c1C(=O)NCc1c(C)cc(C)[nH]c1=O` [Example 2, N-((4,6-Dimethyl-2-oxo-1,2-dihydropyridin-3-yl)methyl)-5-ethyl-6-(ethyl(tetrahydro-2H-pyran-4-yl)amino)-2-(piperidin-1-ylmethyl)benzofuran-4-carboxamide], the IC50 with WSU-DLCL2 cells was 39 nM. The 50% inhibitory concentration (IC50) in the data set on Pfeiffer cells is 13 nM. For the same compound, in data set [1], the Vd/F came out at 41.4 ± 7.91 L/kg, the AUC was 378 ng·h/mL, the CL/F came to 222 ± 23 mL/min/kg and the half-life is 2.2 ± 0.68 h. Besides, in data set [1], the MRT was 3.18 ± 0.3 h and the Cmax was 105 ± 44.5 ng/mL.
As to `CCN(c1cc2occ(C)c2c(C(=O)NCc2c(OC)cc(C)[nH]c2=O)c1C)C1CCOCC1` [Example 20, 6-(Ethyl(tetrahydro-2H-pyran-4-yl)amino)-N-((4-methoxy-6-methyl-2-oxo-1,2-dihydropyridin-3-yl)methyl)-3,5-dimethylbenzofuran-4-carboxamide], the figures for the IC50 on EZH2-A677G and at EZH2-Y641F were 5.9 nM and 5.6 nM, respectively.
With `CCc1c(N(CC)C2CCS(=O)(=O)CC2)cc2occc2c1C(=O)NCc1c(OC)cc(C)[nH]c1=O` [Example 33, 6-((1,1-Dioxidotetrahydro-2H-thiopyran-4-yl)(ethyl)amino)-5-ethyl-N-((4-methoxy-6-methyl-2-oxo-1,2-dihydropyridin-3-yl)methyl)benzofuran-4-carboxamide], the IC50 in the data set on Pfeiffer cells stood at 22 nM; on EZH2-A677G it was 2.7 nM; at EZH2-Y641F, 0.8 nM.
Turning to `CCN(c1cc2occc2c(C(=O)NCc2c(OC)cc(C)[nH]c2=O)c1C)C1CCN(C(C)=O)CC1` [Example 26, 6-((1-Acetylpiperidin-4-yl)(ethyl)amino)-N-((4-methoxy-6-methyl-2-oxo-1,2-dihydropyridin-3-yl)methyl)-5-methylbenzofuran-4-carboxamide], the values for the half-inhibitory concentration (IC50) on EZH2-A677G and at EZH2-Y641F were 2.9 nM and 2.8 nM, respectively.
For `CCc1c(N(CC)C2CCC(F)(F)CC2)cc2occc2c1C(=O)NCc1c(OC)cc(C)[nH]c1=O` [Example 31, 6-((4,4-Difluorocyclohexyl)(ethyl)amino)-5-ethyl-N-((4-methoxy-6-methyl-2-oxo-1,2-dihydropyridin-3-yl)methyl)benzofuran-4-carboxamide], the IC50 was found to be 69 nM with Pfeiffer cells, 2.7 nM at EZH2-A677G and 4.5 nM on EZH2-Y641F.
`CCc1c(N(CC)C2CCOCC2)cc2oc(CN3CCCCC3)cc2c1C(=O)NCc1c(OC)cc(C)[nH]c1=O` [Example 1, 5-Ethyl-6-(ethyl(tetrahydro-2H-pyran-4-yl)amino)-N-((4-methoxy-6-methyl-2-oxo-1,2-dihydropyridin-3-yl)methyl)-2-(piperidin-1-ylmethyl)benzofuran-4-carboxamide]: the IC50 in the data set on Pfeiffer cells is 2 nM. Moreover, at EZH2-A677G, the IC50 worked out at 6.4 nM. Moreover, in data set [1], the Vd/F came to 28.1 ± 18.4 L/kg, the AUC was determined as 246 ± 127 ng·h/mL, the CL/F stood at 390 ± 201 mL/min/kg and the half-life is 0.8 ± 0.13 h. In addition, in data set [1], the MRT amounted to 2.37 ± 0.18 h and the peak concentration (Cmax) is 88.9 ± 77.1 ng/mL.
With `CCN(c1cc2occc2c(C(=O)NCc2c(OC)cc(C)[nH]c2=O)c1C)C1CCN(S(C)(=O)=O)CC1` [Example 25, 6-(Ethyl(1-(methylsulfonyl)piperidin-4-yl)amino)-N-((4-methoxy-6-methyl-2-oxo-1,2-dihydropyridin-3-yl)methyl)-5-methylbenzofuran-4-carboxamide], the IC50 with WSU-DLCL2 cells is 160 nM; in the data set with Pfeiffer cells, 15 nM; at EZH2-A677G, 0.9 nM; at EZH2-Y641F, 3.2 nM.
The like results for `CCN(c1cc2occc2c(C(=O)NCc2c(OC)cc(C)[nH]c2=O)c1C)C1CCOCC1` [Example 18, 6-(Ethyl(tetrahydro-2H-pyran-4-yl)amino)-N-((4-methoxy-6-methyl-2-oxo-1,2-dihydropyridin-3-yl)methyl)-5-methylbenzofuran-4-carboxamide] were, in that order, 113 nM, 20 nM, 4 nM and 2.3 nM.
In the case of `CCc1c(N(CC)C2CC(F)(F)C2)cc2occc2c1C(=O)NCc1c(OC)cc(C)[nH]c1=O` [Example 32, 6-((3,3-Difluorocyclobutyl)(ethyl)amino)-5-ethyl-N-((4-methoxy-6-methyl-2-oxo-1,2-di hydropyridin-3-yl)methyl)benzofuran-4-carboxamide], the half-inhibitory concentration (IC50) was 190 nM with WSU-DLCL2 cells, 18 nM with Pfeiffer cells and 4 nM at EZH2-A677G.
Regarding `CCN(c1cc2occc2c(C(=O)NCc2c(OC)cc(C)[nH]c2=O)c1C)[C@H]1CC[C@H](N(C)C)CC1` [Example 24, 6-(((1r,4r)-4-(Dimethylamino)cyclohexyl)(ethyl)amino)-N-((4-methoxy-6-methyl-2-oxo-1,2-dihydropyridin-3-yl)methyl)-5-methylbenzofuran-4-carboxamide], the IC50 is 45 nM in the data set with WSU-DLCL2 cells, 19 nM in the data set with Pfeiffer cells and 3.4 nM at EZH2-Y641F.
